# From patent US6844443B2, “Benzimidazole derivatives, their production and use” (Takeda Pharmaceutical Company, Ltd., priority 1990, dated 2005)
# Assays:
# A II receptor = target: T1, A II receptor (Bos taurus, UniProt P25104); assay: Inhibition of binding of angiotensin II to angiotensin receptor (radioreceptor assay); parameters: species or system bovine; Radioreceptor Assay 1 × 10^−7M / Radioreceptor Assay 1 × 10^−6M: unit not given here; conditions: for inhibition at 1 µM / inhibition at 0.1 µM: 1 h; for inhibition at 1 µM / Radioreceptor Assay 1 × 10^−6M / Radioreceptor Assay 1 × 10^−7M: inhibition of 125I-A II binding, bovine adrenal cortex membrane fraction; for inhibition at 1 µM / Radioreceptor Assay 1 × 10^−6M: compound 1 × 10^−6M; for inhibition at 0.1 µM: read-out: Radioreceptor Assay 1 × 10^−7M; for Radioreceptor Assay 1 × 10^−7M: compound 1 × 10^−7M
# T1 construct: An A II receptor membrane fraction was prepared from bovine adrenal cortex; from tissue; host or cells: bovine adrenal cortex membrane fraction
# T1 sequence (P25104 1-359): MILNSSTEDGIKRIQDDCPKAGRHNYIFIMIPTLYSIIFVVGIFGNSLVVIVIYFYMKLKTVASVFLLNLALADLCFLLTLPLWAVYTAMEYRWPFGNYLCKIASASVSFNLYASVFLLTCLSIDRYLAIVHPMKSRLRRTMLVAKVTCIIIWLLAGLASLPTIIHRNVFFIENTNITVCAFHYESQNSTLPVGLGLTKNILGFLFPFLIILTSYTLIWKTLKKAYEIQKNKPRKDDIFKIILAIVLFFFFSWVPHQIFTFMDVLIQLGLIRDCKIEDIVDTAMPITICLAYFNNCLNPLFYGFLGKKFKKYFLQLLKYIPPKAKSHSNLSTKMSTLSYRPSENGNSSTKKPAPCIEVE
# Method: An experiment of inhibition on the binding of angiotensin II (A II) to A II receptor was conducted by modifying the method of Douglas et al. [Endocrinology, 102, 685-696 (1978)]. An A II receptor membrane fraction was prepared from bovine adrenal cortex.
# The compound of the present invention (10 ^−6M or 10^−7M) and ^125I-angiotensin II (^125I-A II) (1.85 kBq/50 μl ) were added to the receptor membrane fraction, and the mixture was incubated at room temperature for one hour. The receptor-bound and free ^125I-A II were separated through a filter (Whatman GF/B filter), and the radioactivity of ^125I-A II bound to the receptor was measured.
# [1] = system: A II-induced pressor action; assay: Inhibitory effect on pressor action of A II after oral administration; type: in vivo, Jcl: SD rats; conditions: for inhibition in vivo at 3 mg/kg: Rattus norvegicus, po, read-out: Pressor Response to A II (p.o.) 3 mg/kg; for Pressor Response to A II (p.o.) 3 mg/kg: percent inhibition of pressor action of i.v. A II (100 ng/kg), 3 mg/kg p.o., rats
# Method: Jcl: SD rats (9 week old, male) were employed. On the previous day of the experiment, these animals were applied with cannulation into the femoral artery and vein under anesthesia with pentobarbital Na. The animals were fasted but allowed to access freely to drinking water until the experiment was started. Just on the day of conducting the experiment, the artery cannula was connected with a blood-pressure transducer, and the average blood pressure was recorded by means of polygraph. Before administration of the drug, the pressor action due to intravenous administration of A II (100 ng/kg) as the control was measured. The drugs were orally administered, then, at each point of the measurement, A II was administered intravenously, and the pressor action was similarly measured. By comparing the pressor action before and after administration of the drug, the percent inhibition by the drug on A II-induced pressor action was evaluated.
Structure (SMILES),inhibition at 1 µM (A II receptor),inhibition at 0.1 µM (A II receptor),Radioreceptor Assay 1 × 10^−6M (A II receptor),Radioreceptor Assay 1 × 10^−7M (A II receptor),melting point,inhibition in vivo at 3 mg/kg [1],Pressor Response to A II (p.o.) 3 mg/kg [1]
CCCOc1nc2cccc(C(=O)O)c2n1Cc1ccc(-c2ccccc2-c2nnn[nH]2)cc1 [Example 31],79%,40%,,,,≥ 70%,
CCOC(=O)c1cccc2nc(SC)n(Cc3ccc(-c4ccccc4-c4nnn[nH]4)cc3)c12 [Example 33],26%,2%,,,,30 to 50%,
CCOC(=O)c1cccc2nc(SCC)n(Cc3ccc(-c4ccccc4-c4nnn[nH]4)cc3)c12 [Example 34],54%,17%,,,,≥ 70%,
CCOc1nc2cccc(C(=O)OC(C)OC(=O)OC3CCCCC3)c2n1Cc1ccc(-c2ccccc2-c2nnn[nH]2)cc1 (stereo not shown) [Example 44],,,77,32,,,+++ (+++ ≧ 70%)
COC(=O)c1cccc2nc(OC)n(Cc3ccc(-c4ccccc4-c4nnn[nH]4)cc3)c12 [Example 45],67%,17%,,,,≥ 70%,
CCNc1nc2cccc(C(=O)O)c2n1Cc1ccc(-c2ccccc2-c2nnn[nH]2)cc1 [Example 47],,,96,84,,,+++ (+++ ≧ 70%)
CCCNc1nc2cccc(C(=O)O)c2n1Cc1ccc(-c2ccccc2-c2nnn[nH]2)cc1 [Example 48],92%,67%,,,,50 to 70%,
CCOc1nc2cccc(C(=O)OCOC(=O)CC)c2n1Cc1ccc(-c2ccccc2-c2nnn[nH]2)cc1 [Example 51],84%,44%,,,,≥ 70%,
CCCC(=O)OCOC(=O)c1cccc2nc(OCC)n(Cc3ccc(-c4ccccc4-c4nnn[nH]4)cc3)c12 [Example 52],84%,48%,,,,≥ 70%,
CCOC(=O)OC(C)OC(=O)c1cccc2nc(OCC)n(Cc3ccc(-c4ccccc4-c4nnn[nH]4)cc3)c12 (stereo not shown) [Example 54],81%,42%,,,,≥ 70%,
CCOc1nc2cccc(C(=O)OCOC(=O)C3CCCCC3)c2n1Cc1ccc(-c2ccccc2-c2nnn[nH]2)cc1 [Example 58],84%,55%,,,,≥ 70%,
CCOc1nc2cccc(C(=O)OCOC(=O)/C=C/c3ccccc3)c2n1Cc1ccc(-c2ccccc2-c2nnn[nH]2)cc1 [Example 60],,,81,44,,,+++ (+++ ≧ 70%)
"CCOc1nc2cccc(C(=O)OCc3oc(=O)oc3C)c2n1Cc1ccc(-c2ccccc2-c2nnn[nH]2)cc1 [Working Example 49, (5-Methyl-2-oxo-1,3-dioxolen-4-yl)methyl 2-ethoxy-1-[[2′-(1 H-tetrazol-5-yl)biphenyl-4-yl]methyl]benzimidazole-7-carboxylate]",,,,,122 to 125 °C (dec.),,
"CCOc1nc2cccc(C(=O)OCOC(C)=O)c2n1Cc1ccc(-c2ccccc2-c2nnn[nH]2)cc1 [Working Example 50, Acetoxymethyl 2-ethoxy-1-[[2′-(1 H-tetrazol-5-yl)biphenyl-4-yl]methyl]benzimidazole-7-carboxylate]",,,,,152 to 154 °C (dec.),,
"CCOc1nc2cccc(C(=O)OCOC(=O)CC)c2n1Cc1ccc(-c2ccccc2-c2nnn[nH]2)cc1 [Working Example 51, Propionyloxymethyl 2-ethoxy-1-[[2′-(1 H-tetrazol-5-yl)-biphenyl-4-yl]methyl]benzimidazole-7-carboxylate]",,,,,145 to 150 °C (dec.),,
"CCCC(=O)OCOC(=O)c1cccc2nc(OCC)n(Cc3ccc(-c4ccccc4-c4nnn[nH]4)cc3)c12 [Working Example 52, Butyryloxymethyl 2-ethoxy-1-[[2′-(1 H-tetrazol-5-yl)biphenyl-4-yl]methyl]benzimidazole-7-carboxylate]",,,,,96 to 100 °C,,

# Continued, in another order:
inhibition at 1 µM (A II receptor),inhibition at 0.1 µM (A II receptor),Radioreceptor Assay 1 × 10^−6M (A II receptor),Radioreceptor Assay 1 × 10^−7M (A II receptor),melting point,Structure (SMILES),inhibition in vivo at 3 mg/kg [1],Pressor Response to A II (p.o.) 3 mg/kg [1]
82%,46%,,,,CCOC(=O)c1cccc2nc(OCC)n(Cc3ccc(-c4ccccc4-c4nnn[nH]4)cc3)c12 [Example 28],≥ 70%,
91%,61%,,,,CCOc1nc2cccc(C(=O)O)c2n1Cc1ccc(-c2ccccc2-c2nnn[nH]2)cc1 [Example 29],≥ 70%,
48%,16%,,,,CCCOc1nc2cccc(C(=O)OCC)c2n1Cc1ccc(-c2ccccc2-c2nnn[nH]2)cc1 [Example 30],≥ 70%,
32%,7%,,,,CCCSc1nc2cccc(C(=O)OCC)c2n1Cc1ccc(-c2ccccc2-c2nnn[nH]2)cc1 [Example 35],,
82%,51%,,,,CSc1nc2cccc(C(=O)O)c2n1Cc1ccc(-c2ccccc2-c2nnn[nH]2)cc1 [Example 36],≥ 70%,
80%,41%,,,,CCSc1nc2cccc(C(=O)O)c2n1Cc1ccc(-c2ccccc2-c2nnn[nH]2)cc1 [Example 37],≥ 70%,
50%,6%,,,,CCCSc1nc2cccc(C(=O)O)c2n1Cc1ccc(-c2ccccc2-c2nnn[nH]2)cc1 [Example 38],≥ 70%,
89%,58%,,,,CCOc1nc2cccc(C(=O)OC)c2n1Cc1ccc(-c2ccccc2-c2nnn[nH]2)cc1 [Example 39],≥ 70%,
57%,45%,,,,CCCNc1nc2cccc(C(=O)OCC)c2n1Cc1ccc(-c2ccccc2-c2nnn[nH]2)cc1 [Example 41],,
,,94,74,,CCOc1nc2cccc(C(=O)OCOC(=O)C(C)(C)C)c2n1Cc1ccc(-c2ccccc2-c2nnn[nH]2)cc1 [Example 43],,+++ (+++ ≧ 70%)
88%,66%,,,,COc1nc2cccc(C(=O)O)c2n1Cc1ccc(-c2ccccc2-c2nnn[nH]2)cc1 [Example 46],≥ 70%,
91%,66%,,,,CCOc1nc2cccc(C(=O)OCc3oc(=O)oc3C)c2n1Cc1ccc(-c2ccccc2-c2nnn[nH]2)cc1 [Example 49],≥ 70%,
92%,63%,,,,CCOc1nc2cccc(C(=O)OCOC(C)=O)c2n1Cc1ccc(-c2ccccc2-c2nnn[nH]2)cc1 [Example 50],≥ 70%,
85%,55%,,,,CCOc1nc2cccc(C(=O)OCOC(=O)C(C)C)c2n1Cc1ccc(-c2ccccc2-c2nnn[nH]2)cc1 [Example 53],≥ 70%,
91%,63%,,,,CCOc1nc2cccc(C(=O)OC(C)OC(C)=O)c2n1Cc1ccc(-c2ccccc2-c2nnn[nH]2)cc1 (stereo not shown) [Example 55],≥ 70%,
79%,41%,,,,CNc1nc2cccc(C(=O)O)c2n1Cc1ccc(-c2ccccc2-c2nnn[nH]2)cc1 [Example 57],,
89%,54%,,,,CCOc1nc2cccc(C(=O)OCOC(=O)C3CCCC3)c2n1Cc1ccc(-c2ccccc2-c2nnn[nH]2)cc1 [Example 61],≥ 70%,
87%,48%,,,,CCNc1nc2cccc(C(=O)OCOC(=O)C(C)(C)C)c2n1Cc1ccc(-c2ccccc2-c2nnn[nH]2)cc1 [Example 62],≥ 70%,
,,61,19,,CCNc1nc2cccc(C(=O)OC(C)OC(=O)OC3CCCCC3)c2n1Cc1ccc(-c2ccccc2-c2nnn[nH]2)cc1 (stereo not shown) [Example 63],,+++ (+++ ≧ 70%)
